Reference: patent US5877202A, “Indole derivatives useful to treat estrogen-related neoplasms and disorders” (priority 1996, dated 1999)
Where “and” joins values, the source holds several entries; their conditions need not be identical. Identical values can stand only once.

Tests used:
estrogen receptor mRNA = test: Reduction of estrogen receptor mRNA levels in treated MCF-7 human breast tumor cells; assay type: cell-based;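 as to Estrogen Receptor mRNA band intensity: Phosphoimager intensity of radioactive mRNA bands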
Experimental: (§1) After treatment with 30 μM drug for 24 hr, total RNA is isolated according to the guanidinium isothiocyanate method using an RNA preparation kit from 5 Prime-3 Prime, Inc., following the manufacturer's instructions. The RNA is separated by formaldehyde gel electrophoresis and transferred to a nylon membrane.

MCF-7 estrogen receptor = target: T1, MCF-7 estrogen receptor (Homo sapiens, UniProt P03372); test: Competitive binding assay, Relative Binding Affinities on binding of estradiol to MCF-7 estrogen receptor
T1 construct: estrogen receptor extracted from MCF-7 human breast tumor cells; endogenous in cells; host or cells: MCF-7 human breast cancer cells (nuclear extract, cytosol or whole cell extract)
T1 sequence (P03372 1-595): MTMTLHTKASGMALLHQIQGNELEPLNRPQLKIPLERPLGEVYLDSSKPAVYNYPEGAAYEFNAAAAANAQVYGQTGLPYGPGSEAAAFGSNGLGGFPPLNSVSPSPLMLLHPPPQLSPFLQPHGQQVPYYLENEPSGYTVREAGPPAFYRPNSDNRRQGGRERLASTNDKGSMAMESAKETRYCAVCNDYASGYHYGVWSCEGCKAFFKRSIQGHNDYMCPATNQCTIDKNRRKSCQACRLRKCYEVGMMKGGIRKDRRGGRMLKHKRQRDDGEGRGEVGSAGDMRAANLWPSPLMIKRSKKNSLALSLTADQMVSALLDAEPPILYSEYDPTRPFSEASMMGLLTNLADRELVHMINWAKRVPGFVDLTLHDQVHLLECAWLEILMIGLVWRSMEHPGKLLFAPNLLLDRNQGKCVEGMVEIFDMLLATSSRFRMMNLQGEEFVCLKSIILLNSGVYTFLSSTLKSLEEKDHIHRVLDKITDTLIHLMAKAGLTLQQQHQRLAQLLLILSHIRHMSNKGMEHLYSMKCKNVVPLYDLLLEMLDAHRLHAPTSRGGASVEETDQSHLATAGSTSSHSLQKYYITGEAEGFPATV
Experimental: Briefly, RBAs are determined from competitive binding assays with several concentrations of estradiol (E2) with and without test compound. After 16-18 hours of incubation at 4 degrees C., unbound [^3 H] E2 is separated from ER-bound [^3 H] E2. The IC50 is determined and the RBA is calculated as: […]

estrogen receptors = target: T2, estrogen receptors (Homo sapiens, UniProt P03372); test: Quantification of estrogen receptors in nuclear and whole cell extracts (ER-EIA monoclonal kit), Table 1; assay type: cell-based, human (MCF-7 human breast cancer cells); details: estrogen receptors in nuclear extracts
T2 construct: estrogen receptor extracted from MCF-7 human breast tumor cells; endogenous in cells; host or cells: MCF-7 human breast cancer cells (nuclear extract, cytosol or whole cell extract)
T2 sequence (P03372 1-595): T1 sequence (P03372 1-595)
Experimental: (§2) Monolayers of MCF-7 human breast cancer cells are rinsed once with HBSS and scraped off culture dishes into 15 ml conical tubes with 5 ml HBSS. The cells are sedimented by centrifugation at 250×g for five minutes, suspended in 1 ml HBSS and sedimented by centrifugation at 2000 rpm in a tabletop centrifuge for five minutes in a 1.5 ml microfuge tube. Two PCV of a solution of a lysis buffer (25 mM HEPES, pH 7.8, 50 mM KCl, 0.5% Nonidet P 40, 2 mM dithiothreitol, 0.2 mM phenylmethylsulfonyl fluoride, 0.05 mg/ml leupeptin, 0.05 mg/ml aprotinin, 0.0025 mg/ml pepstatin, 0.005 mg/ml antipain) are added and cells are kept on ice for 15 minutes. Lysed cells are centrifuged for 3 minutes at 10,000×g, supernatant decanted, and kept as the cytosol fraction. Pellets are suspended in two PCV of extraction buffer (25 mM HEPES, pH 7.8, 500 mM KCl, 10% glycerol, 2 mM dithiothreitol and the above protease inhibitors), mixed for 20 minutes by inversion at 4 degrees C. and centrifuged at 10,000×g for 20 minutes. The supernatant is decanted and saved as nuclear extract. Both the nuclear extract and the cytosol are dialyzed for two hours against dialysis buffer (25 mM HEPES, pH 7.8, 50 mM KCl, 10% glycerol, 2 mM dithiothreitol and the above protease inhibitors). Nuclear and cytosol fractions are stored frozen at -80 degrees C. until used for mobility shift assays or determination of estrogen receptor content.
Whole cell extracts of tumor cells are prepared by the method of Reese and Katzenellenbogen, Nuc. Acids Res., 19: 6595-6602 (1991), with some modifications. Cell monolayers are rinsed once with HBSS, then scraped into HBSS and sedimented by centrifugation (5 min., 250×g). After resuspending in 1 mL HBSS, the cells are again sedimented at 250×g for 5 min at 4° C. The cell pellet is resuspended in lysis/extract buffer containing 20 mM Tris, pH 7.5, 10% glycerol (v/v), 0.5M sodium chloride and 0.5% NP-40 (v/v) and incubated on ice for 25 minutes, then the supernatants are dialyzed against 25 mM HEPES, pH 7.8, 10% glycerol (v/v), 0.5 mM dithiothreitol and 50 mM potassium chloride for 2 hours at 4° C. Both the lysis/extraction and the dialysis buffers contain protease inhibitors which included 0.5 mM phenylmethylsulfonylfluoride, 0.05 mg/mL leupeptin, 0.05 mg/mL aprotinin, 0.00-25 mg/mL pepstatin, and 0.005 mg/mL antipain. Dialyzed whole cell extracts are stored in aliquots at -80° C. until used.
The protein concentration for nucleus and cytosol fractions are determined with a BIO-RAD kit, according to the manufacturer's instructions.
Estrogen receptor levels in nuclear and whole cell extracts of tumor cells were quanitated using the ER-EIA monoclonal kit manufactured by Abbott Laboratories (Diagnostic Division) according to the kit instructions.
receptors in nuclear extracts.
.dagger.WCE refers to IC50 value for estrogen receptors in whole cel
A slash dividing two numbers indicates the results of two separate

[1] = target: T3, estrogen receptor binding to an estrogen response element (Homo sapiens, UniProt P03372); test: Inhibition of estrogen receptor binding to an estrogen response element in DNA mobility shift assays; assay type: biochemical, human (nuclear extract of MCF-7 human breast cancer cells)
T3 construct: estrogen receptor extracted from MCF-7 human breast tumor cells; endogenous in cells; host or cells: MCF-7 human breast cancer cells (nuclear extract, cytosol or whole cell extract)
T3 sequence (P03372 1-595): T1 sequence (P03372 1-595)
Experimental: as §2
Briefly, to each reaction tube was added 0.01 mg nuclear extract, 2 μg poly dIdC, 50 mM NaCl, 1 mM dithiothreitol and 10 mM Tris, pH 7.5 in a total volume of 0.01 ml and the mixture was kept at room temperature for 10 minutes. A ^32 P-labelled estrogen response element [ERE]

GAPDH mRNA = GAPDH mRNA levels in treated MCF-7 human breast tumor cells (positive control probe); assay type: cell-based; details: 30 μM, 24 hr;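 also: Phosphoimager intensity of radioactive mRNA bands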
Experimental: as §1

[2] = tested on: hormone-dependent breast cancer; details: cited from earlier work
[3] = tested on: MCF-7 human breast tumor cells; test: Clonigenic assay for MCF-7 human breast tumor cells; assay type: cell-based; details: for Colonies ± S.D.: 24 hours treatment, grown 22 days
Experimental: MCF-7 cells (10^7) are added to 100 mm tissue culture dishes, allowed to adhere for 24 hours and then treated with either MDL 101,906 or ICI 164,384 for 24 hours. The cells are removed from the dishes with trypsin/EDTA, and washed twice by centrifugation. The cells were counted and 500 cells from each treatment group are added to triplicate wells of 6-well culture dishes. The cells are grown for 22 days. Colonies 1 mm diameter or greater are counted.

mouse estrogen receptor = details: Fawell, S. E., et al. (1990); cited from earlier work
[4] = read-out: integrated volume of shifted ERE oligo as percentage of control, given as % inhibition

**Q.** What does the source list for `CCCCN(C)C(=O)CCCCCCCNC(=O)Cc1c(-c2ccc(O)cc2)n(Cc2ccccc2)c2ccc(O)cc12` [MDL 103,324, 8-[[5-Hydroxy-1-benzyl-2-[(4-hydroxy)-phenyl]-1H-indol-3-yl]-acetylamino]-octanoic acid methyl-butyl-amide]?
**A.** ER/GAPDH mean (estrogen receptor mRNA; 30 μM, 24 hr, mean of replicates 1 and 2): 0.74; ER/GAPDH (estrogen receptor mRNA; 30 μM, 24 hr, replicate 1): 0.61; Estrogen Receptor mRNA band intensity (estrogen receptor mRNA; 30 μM, 24 hr, replicate 1): 5,128; ER/GAPDH (estrogen receptor mRNA; 30 μM, 24 hr, replicate 2): 0.87; Estrogen Receptor mRNA band intensity (estrogen receptor mRNA; 30 μM, 24 hr, replicate 2): 7,077; activity at 30 µM (estrogen receptor mRNA; Homo sapiens, MCF7, 24 h, read-out: ER/GAPDH % Control): 20%; inhibition of estradiol binding to MCF-7 ER (MCF-7 estrogen receptor; doses of 100 or 200 nM): did not significantly inhibit; inhibition of estradiol binding to MCF-7 ER (MCF-7 estrogen receptor; typically, at doses of 100 or 200 nM): less than 10%; IC50 (estrogen receptors): 18 µM; IC50 [1]: 8.5 µM and 18 µM; inhibition at 2 µM [1, 4]: 60%; inhibition at 5 µM [1, 4]: 68%; inhibition at 10 µM [1, 4]: 58%; inhibition at 20 µM [1, 4]: 46%; inhibition at 30 µM [1, 4]: 50%; GAPDH mRNA band intensity (GAPDH mRNA; replicate 1): 8,300; GAPDH mRNA band intensity (GAPDH mRNA; replicate 2): 8,118

**Q.** Which “patients who do not respond to tamoxifen treatment despite presence of ERs in the malignant tissue” value ([2]; Maass, H., et al., Cancer, 46:2783 (1980)) does the source give for `CC/C(=C(\c1ccccc1)c1ccc(OCCN(C)C)cc1)c1ccccc1` [tamoxifen] here?
**A.** About 40%

**Q.** And the “toxicological problems associated with tamoxifen treatment” value ([2]; in vivo)?
**A.** tumor flares, vaginal cornification and hypercalciemia

**Q.** For `CCCCN(C)C(=O)CCCCCCCCCC[C@@H]1Cc2cc(O)ccc2[C@H]2CC[C@]3(C)[C@@H](O)CC[C@H]3[C@H]12` [ICI 164,384, 11-(3-17β-dihydroxyoestra-1,3,-5(10)-trien-7α-yl)-N-n-butyl-N-methylundecanamide, reference compound], which “Colonies ± S.D.” value ([3]; 0.1 μM) is on record?
**A.** 48 ± 6

**Q.** And the “Colonies ± S.D.” value ([3]; 1.0 μM)?
**A.** 40 ± 2

**Q.** What about the activity at 0.1 µM ([3]; Homo sapiens, MCF7, 528 h, 0.1 μM, read-out: Colonies, % Control) of the same compound?
**A.** 145%

**Q.** What about the activity at 1 µM ([3]; Homo sapiens, MCF7, 528 h, 1.0 μM, read-out: Colonies, % Control) of the same compound?
**A.** 121%

**Q.** What about the “inhibition of DNA binding of the mouse estrogen receptor” value (mouse estrogen receptor) of the same compound?
**A.** inhibit DNA binding of the mouse estrogen receptor by interfering with receptor dimerization
